Results: publication PMC5218480 (PLoS ONE, 2017)

System: MV-4-11 cells
Assay: Gene expression microarray analysis (Affymetrix PrimeView) and GSEA
Assay type: cell-based, human
Design: RFU PODN (11730768_x_at) / Fold change /veh PODN (11730768_x_at) / RFU LINC00158 (11744669_a_at) / Fold change /veh LINC00158 (11744669_a_at) / RFU DUSP10 (11751237_a_at) / Fold change /veh DUSP10 (11751237_a_at) / RFU ID3 (11757404_x_at) / Fold change /veh ID3 (11757404_x_at) / RFU PLEKHG5 (11737974_s_at) / Fold change /veh PLEKHG5 (11737974_s_at) / RFU LRRC4B (11730491_at) / Fold change /veh LRRC4B (11730491_at) / RFU GIMAP4 (11747438_a_at) / Fold change /veh GIMAP4 (11747438_a_at) / RFU KRT8 (11758183_x_at) / Fold change /veh KRT8 (11758183_x_at) / RFU CNN1 (11734310_a_at) / Fold change /veh CNN1 (11734310_a_at) / RFU VPS37D (11726825_at) / Fold change /veh VPS37D (11726825_at) / RFU C10orf10 (11716522_x_at) / Fold change /veh C10orf10 (11716522_x_at) / RFU KIR2DL2 /// KIR2DL4 /// KIR2DL5A /// KIR2DL5B /// KIR2DS1 /// KIR2DS2 /// KIR2DS3 /// KIR2DS4 /// KIR3DL3 /// KIR3DL3 /// KIR3DS1 (11738374_at) / Fold change /veh KIR2DL2 /// KIR2DL4 /// KIR2DL5A /// KIR2DL5B /// KIR2DS1 /// KIR2DS2 /// KIR2DS3 /// KIR2DS4 /// KIR3DL3 /// KIR3DL3 /// KIR3DS1 (11738374_at) / RFU C1QL1 (11718748_at) / Fold change /veh C1QL1 (11718748_at) / RFU TMPRSS4 (11747572_a_at) / Fold change /veh TMPRSS4 (11747572_a_at) / RFU HAMP (11756126_x_at) / Fold change /veh HAMP (11756126_x_at) / RFU RNFT2 (11725882_a_at) / Fold change /veh RNFT2 (11725882_a_at) / RFU NR4A2 (11747474_a_at) / Fold change /veh NR4A2 (11747474_a_at) / RFU ABCC12 (11746883_a_at) / Fold change /veh ABCC12 (11746883_a_at) / RFU TMEM136 (11760407_x_at) / Fold change /veh TMEM136 (11760407_x_at) / RFU CLDN22 /// WWC2 (11732394_at) / Fold change /veh CLDN22 /// WWC2 (11732394_at) / RFU HLA-DPB1 (11760878_x_at) / Fold change /veh HLA-DPB1 (11760878_x_at) / RFU SPINT1 (11716480_a_at) / Fold change /veh SPINT1 (11716480_a_at) / RFU GAP43 (11754022_s_at) / Fold change /veh GAP43 (11754022_s_at) / RFU A4GNT (11735810_at) / Fold change /veh A4GNT (11735810_at) / RFU PRB3 (11715151_x_at) / Fold change /veh PRB3 (11715151_x_at) / RFU TUBB4B (11761932_at) / Fold change /veh TUBB4B (11761932_at) / RFU CAPN14 (11732068_a_at) / Fold change /veh CAPN14 (11732068_a_at) / RFU TMCC2 (11721928_a_at) / Fold change /veh TMCC2 (11721928_a_at) / RFU IRGQ (11745062_a_at) / Fold change /veh IRGQ (11745062_a_at) / RFU FAM174B (11720279_a_at) / Fold change /veh FAM174B (11720279_a_at) / RFU TMPRSS4 (11748680_a_at) / Fold change /veh TMPRSS4 (11748680_a_at) / RFU FAM212B (11763350_a_at) / Fold change /veh FAM212B (11763350_a_at) / RFU PLEKHG5 (11743358_a_at) / Fold change /veh PLEKHG5 (11743358_a_at) / RFU ZSCAN30 (11745921_a_at) / Fold change /veh ZSCAN30 (11745921_a_at) / RFU CMKLR1 (11741424_a_at) / Fold change /veh CMKLR1 (11741424_a_at) / RFU LOC101060620 /// MAPK8IP1 (11723275_at) / Fold change /veh LOC101060620 /// MAPK8IP1 (11723275_at) / RFU SPTSSB (11747773_x_at) / Fold change /veh SPTSSB (11747773_x_at) / RFU PRSS12 (11739890_at) / Fold change /veh PRSS12 (11739890_at) / RFU BIN1 (11741810_x_at) / Fold change /veh BIN1 (11741810_x_at) / RFU WNT11 (11732464_a_at) / Fold change /veh WNT11 (11732464_a_at) / RFU C10orf10 (11716521_a_at) / Fold change /veh C10orf10 (11716521_a_at) / RFU C5orf56 (11738089_at) / Fold change /veh C5orf56 (11738089_at) / RFU CYB561 (11721691_x_at) / Fold change /veh CYB561 (11721691_x_at) / RFU ANKRD19P (11752326_a_at) / Fold change /veh ANKRD19P (11752326_a_at) / RFU OR2T12 /// OR2T33 /// OR2T8 (11738714_s_at) / Fold change /veh OR2T12 /// OR2T33 /// OR2T8 (11738714_s_at) / RFU VCAN (11748164_a_at) / Fold change /veh VCAN (11748164_a_at) / RFU JSRP1 (11732532_at) / Fold change /veh JSRP1 (11732532_at) / RFU KRTAP10-11 (11738290_x_at) / Fold change /veh KRTAP10-11 (11738290_x_at) / RFU MYO3A (11730013_a_at) / Fold change /veh MYO3A (11730013_a_at) / RFU EBF3 (11725865_a_at) / Fold change /veh EBF3 (11725865_a_at) / RFU CAMK2N1 (11719241_x_at) / Fold change /veh CAMK2N1 (11719241_x_at) / RFU C5orf56 (11738088_a_at) / Fold change /veh C5orf56 (11738088_a_at) / RFU OLFML3 (11715873_a_at) / Fold change /veh OLFML3 (11715873_a_at) / RFU LOC100653217 /// NTM (11731650_a_at) / Fold change /veh LOC100653217 /// NTM (11731650_a_at) / RFU MAPK11 (11762145_a_at) / Fold change /veh MAPK11 (11762145_a_at) / RFU FIZ1 (11724087_x_at) / Fold change /veh FIZ1 (11724087_x_at) / RFU OASL (11726364_x_at) / Fold change /veh OASL (11726364_x_at) / RFU SOX15 (11748057_x_at) / Fold change /veh SOX15 (11748057_x_at) / RFU CD79A (11719716_a_at) / Fold change /veh CD79A (11719716_a_at) / RFU HIST1H1D (11736915_at) / Fold change /veh HIST1H1D (11736915_at) / RFU CASKIN2 (11723855_a_at) / Fold change /veh CASKIN2 (11723855_a_at) / RFU LOC730098 (11760151_x_at) / Fold change /veh LOC730098 (11760151_x_at) / RFU OR4N2 (11742367_at) / Fold change /veh OR4N2 (11742367_at) / RFU PRRT2 (11749266_a_at) / Fold change /veh PRRT2 (11749266_a_at) / RFU SNX32 (11753110_a_at) / Fold change /veh SNX32 (11753110_a_at) / RFU CDHR5 (11726645_a_at) / Fold change /veh CDHR5 (11726645_a_at) / RFU RCAN1 (11760418_a_at) / Fold change /veh RCAN1 (11760418_a_at) / RFU FAM167A (11723789_a_at) / Fold change /veh FAM167A (11723789_a_at) / RFU FAM26E (11764081_at) / Fold change /veh FAM26E (11764081_at) / RFU ISYNA1 (11749810_s_at) / Fold change /veh ISYNA1 (11749810_s_at) / RFU ACY1 (11761880_at) / Fold change /veh ACY1 (11761880_at) / RFU 11764098_at / Fold change /veh 11764098_at / RFU SAMD14 (11745864_x_at) / Fold change /veh SAMD14 (11745864_x_at) / RFU NPB (11741838_a_at) / Fold change /veh NPB (11741838_a_at) / RFU TMPRSS6 (11731388_a_at) / Fold change /veh TMPRSS6 (11731388_a_at) / RFU KRTAP10-2 (11738614_at) / Fold change /veh KRTAP10-2 (11738614_at) / RFU ARHGAP8 /// PRR5-ARHGAP8 (11727945_x_at) / Fold change /veh ARHGAP8 /// PRR5-ARHGAP8 (11727945_x_at) / RFU KRTAP5-7 /// NADSYN1 (11734609_at) / Fold change /veh KRTAP5-7 /// NADSYN1 (11734609_at) / RFU RASL12 (11751679_a_at) / Fold change /veh RASL12 (11751679_a_at) / RFU CDKN2B (11736163_a_at) / Fold change /veh CDKN2B (11736163_a_at) / RFU PRF1 (11729649_at) / Fold change /veh PRF1 (11729649_at) / RFU, ZNF638 /// ZNF638-IT1 / Fold change vs veh, ZNF638 /// ZNF638-IT1 / RFU, PANK3 / Fold change vs veh, PANK3 / RFU, SH3YL1 / Fold change vs veh, SH3YL1 / RFU, ZEB2 / Fold change vs veh, ZEB2 / RFU, NRIP1 / Fold change vs veh, NRIP1 / RFU, PTTG1IP / Fold change vs veh, PTTG1IP / RFU, CAPN2 / Fold change vs veh, CAPN2 / RFU, MED14 / Fold change vs veh, MED14 / RFU, SNORA58 / Fold change vs veh, SNORA58 / RFU, C1orf63 / Fold change vs veh, C1orf63 / RFU, LRRFIP1 / Fold change vs veh, LRRFIP1 / RFU, NDUFAF7 / Fold change vs veh, NDUFAF7 / RFU, SLC12A2 / Fold change vs veh, SLC12A2 / RFU, IBTK / Fold change vs veh, IBTK / RFU, ESF1 / Fold change vs veh, ESF1 / Fold change vs veh, TMEM50B / RFU, TAOK1 / Fold change vs veh, TAOK1 / RFU, ACBD3 / Fold change vs veh, ACBD3 / RFU, TMA16 / Fold change vs veh, TMA16 / RFU, RWDD3 / Fold change vs veh, RWDD3 / RFU, BCAT1 / Fold change vs veh, BCAT1 / RFU, EDEM3 / Fold change vs veh, EDEM3 / RFU, TMEM33 / Fold change vs veh, TMEM33 / RFU, WDR75 / Fold change vs veh, WDR75 / RFU, AHCTF1 / Fold change vs veh, AHCTF1 / RFU, TFRC / Fold change vs veh, TFRC / RFU, ZDHHC17 / Fold change vs veh, ZDHHC17 / RFU, NOM1 / Fold change vs veh, NOM1 / RFU, ARL8B / Fold change vs veh, ARL8B / RFU, ZBTB11 / Fold change vs veh, ZBTB11 / RFU, TAMM41 / Fold change vs veh, TAMM41 / RFU, KIAA1704 /// LOC100996395 / Fold change vs veh, KIAA1704 /// LOC100996395 / RFU, ING1 / Fold change vs veh, ING1 / RFU, TRMT61B / Fold change vs veh, TRMT61B / RFU, FUBP3 / Fold change vs veh, FUBP3 / RFU, TP53 / Fold change vs veh, TP53 / RFU, TNKS2 / Fold change vs veh, TNKS2 / RFU, ZFP14 / Fold change vs veh, ZFP14 / RFU, ACTR2 / Fold change vs veh, ACTR2 / RFU, PPP3R1 / Fold change vs veh, PPP3R1 / RFU, PIK3R1 / Fold change vs veh, PIK3R1 / RFU, HNRNPA1 / Fold change vs veh, HNRNPA1 / RFU, RNF170 / Fold change vs veh, RNF170 / RFU, ZNF28 / Fold change vs veh, ZNF28 / RFU, RNGTT / Fold change vs veh, RNGTT / RFU, OGT / Fold change vs veh, OGT / RFU, BRD1 / Fold change vs veh, BRD1 / RFU, MARS / Fold change vs veh, MARS / RFU, ZNF655 / Fold change vs veh, ZNF655 / RFU, FAHD1 / Fold change vs veh, FAHD1 / RFU, BDP1 / Fold change vs veh, BDP1 / RFU, LRRCC1 / Fold change vs veh, LRRCC1 / RFU, ARID1A / Fold change vs veh, ARID1A / RFU, ZNF146 / Fold change vs veh, ZNF146 / RFU, ZNF330 / Fold change vs veh, ZNF330 / RFU, GPN3 / Fold change vs veh, GPN3 / RFU, C9orf123 / Fold change vs veh, C9orf123 / RFU, N4BP2L2 / Fold change vs veh, N4BP2L2 / RFU, ARFIP1 / Fold change vs veh, ARFIP1 / RFU, FAM179B / Fold change vs veh, FAM179B / RFU, BCL10 / Fold change vs veh, BCL10 / RFU, UHRF1BP1L / Fold change vs veh, UHRF1BP1L / RFU, BET1 / Fold change vs veh, BET1 / RFU, CNOT2 / Fold change vs veh, CNOT2 / RFU, ZNF268 / Fold change vs veh, ZNF268 / Fold change vs veh, ZNF507 / RFU, DGCR2 / Fold change vs veh, DGCR2 / RFU, WDSUB1 / Fold change vs veh, WDSUB1 / Fold change vs veh, HSP90B1 /// MIR3652 / RFU, ADSS / Fold change vs veh, ADSS / RFU, GK / Fold change vs veh, GK / RFU, ZNF148 / Fold change vs veh, ZNF148 / RFU, TAF9 / Fold change vs veh, TAF9 / RFU, SLC1A5 / Fold change vs veh, SLC1A5 / RFU, SLMO2 / Fold change vs veh, SLMO2 / RFU, ABCC4 / Fold change vs veh, ABCC4 / RFU, LOC101060439 /// RAP1B / Fold change vs veh, LOC101060439 /// RAP1B / RFU, RFX7 / Fold change vs veh, RFX7 / RFU, GTPBP10 / Fold change vs veh, GTPBP10 / RFU, CNEP1R1 / Fold change vs veh, CNEP1R1 / RFU, BIVM-ERCC5 /// ERCC5 / Fold change vs veh, BIVM-ERCC5 /// ERCC5 / RFU, ILF3 / Fold change vs veh, ILF3 / RFU 11762660_at / Fold change /veh 11762660_at / RFU VCAN (11757783_s_at) / Fold change /veh VCAN (11757783_s_at) / RFU DDX43 (11728927_at) / Fold change /veh DDX43 (11728927_at) / RFU KRT8 (11758188_x_at) / Fold change /veh KRT8 (11758188_x_at) / RFU NKD1 (11759106_at) / Fold change /veh NKD1 (11759106_at) / RFU SRD5A1 (11742802_a_at) / Fold change /veh SRD5A1 (11742802_a_at) / RFU TPSAB1 /// TPSB2 (11721975_s_at) / Fold change /veh TPSAB1 /// TPSB2 (11721975_s_at) / RFU GSTM3 (11746129_a_at) / Fold change /veh GSTM3 (11746129_a_at) / RFU IL23R (11737362_x_at) / Fold change /veh IL23R (11737362_x_at) / RFU TMEM51 (11727254_a_at) / Fold change /veh TMEM51 (11727254_a_at) / RFU PIWIL2 (11732686_x_at) / Fold change /veh PIWIL2 (11732686_x_at) / RFU ORM1 (11744905_x_at) / Fold change /veh ORM1 (11744905_x_at) / RFU CCDC152 (11743942_at) / Fold change /veh CCDC152 (11743942_at) / RFU ECM1 (11717891_a_at) / Fold change /veh ECM1 (11717891_a_at) / RFU IL23R (11748794_a_at) / Fold change /veh IL23R (11748794_a_at) / RFU TNFAIP8L3 (11732012_x_at) / Fold change /veh TNFAIP8L3 (11732012_x_at) / RFU MBOAT4 (11741988_at) / Fold change /veh MBOAT4 (11741988_at) / RFU 11764193_at / Fold change /veh 11764193_at / RFU TMEM53 (11763286_at) / Fold change /veh TMEM53 (11763286_at) / RFU MAGEB2 (11727129_at) / Fold change /veh MAGEB2 (11727129_at) / RFU TMEM200A (11744735_a_at) / Fold change /veh TMEM200A (11744735_a_at) / RFU CCDC152 (11751479_a_at) / Fold change /veh CCDC152 (11751479_a_at) / RFU FAM211A (11726209_a_at) / Fold change /veh FAM211A (11726209_a_at) / RFU RGS16 (11746705_a_at) / Fold change /veh RGS16 (11746705_a_at) / RFU VCAN (11755009_s_at) / Fold change /veh VCAN (11755009_s_at) / RFU RHOB (11743442_s_at) / Fold change /veh RHOB (11743442_s_at) / RFU RGS16 (11720943_a_at) / Fold change /veh RGS16 (11720943_a_at) / RFU RGS16 (11720944_at) / Fold change /veh RGS16 (11720944_at) / RFU, VPS4B / Fold change vs veh, VPS4B / RFU, CREB1 / Fold change vs veh, CREB1 / RFU, DNAJC13 / Fold change vs veh, DNAJC13 / RFU, GNAQ / Fold change vs veh, GNAQ / RFU, CDK5R1 / Fold change vs veh, CDK5R1 / RFU, ZRANB3 / Fold change vs veh, ZRANB3 / RFU, CUL4A / Fold change vs veh, CUL4A / RFU, CCNY / Fold change vs veh, CCNY / RFU, UFL1 / Fold change vs veh, UFL1 / RFU, COG3 / Fold change vs veh, COG3 / RFU, DIAPH2 / Fold change vs veh, DIAPH2 / RFU, SKA2 / Fold change vs veh, SKA2 / RFU, AFF3 / Fold change vs veh, AFF3 / RFU, LMF1 / Fold change vs veh, LMF1 / RFU, IPO11 / Fold change vs veh, IPO11 / RFU, DFFB / Fold change vs veh, DFFB / RFU, FOXP1 / Fold change vs veh, FOXP1 / RFU, CARD8 / Fold change vs veh, CARD8 / RFU, STRN3 / Fold change vs veh, STRN3 / RFU, ADK / Fold change vs veh, ADK / RFU, RASSF2 / Fold change vs veh, RASSF2 / RFU, WIPF1 / Fold change vs veh, WIPF1 / RFU, LARP1B / Fold change vs veh, LARP1B / RFU, RASA1 / Fold change vs veh, RASA1 / RFU, RB1 / Fold change vs veh, RB1 / RFU, PPFIA1 / Fold change vs veh, PPFIA1 / RFU, MAT2A / Fold change vs veh, MAT2A / RFU, CCT5 / Fold change vs veh, CCT5 / RFU, WDR92 / Fold change vs veh, WDR92 / RFU, CUX1 / Fold change vs veh, CUX1 / RFU, TTC7A / Fold change vs veh, TTC7A / RFU, TMEM135 / Fold change vs veh, TMEM135 / RFU, DEPTOR / Fold change vs veh, DEPTOR / RFU, CPM / Fold change vs veh, CPM / RFU, DNAJB6 / Fold change vs veh, DNAJB6 / RFU, CACNA2D3 / Fold change vs veh, CACNA2D3 / RFU, DTX4 / Fold change vs veh, DTX4 / RFU, TFCP2 / Fold change vs veh, TFCP2 / RFU, GMCL1 /// GMCL1P1 / Fold change vs veh, GMCL1 /// GMCL1P1 / RFU, AEBP2 / Fold change vs veh, AEBP2 / RFU, SNHG1 /// SNORD22 /// SNORD25 /// SNORD26 /// SNORD27 /// SNORD28 /// SNORD29 /// SNORD31 / Fold change vs veh, SNHG1 /// SNORD22 /// SNORD25 /// SNORD26 /// SNORD27 /// SNORD28 /// SNORD29 /// SNORD31 / Fold change (Aza/veh), C12orf56 (ProbeSet 11735607_a_at) / Fold change (ACY-1035/veh), C12orf56 (ProbeSet 11735607_a_at) / Fold change (Aza/veh), FGFR1OP (ProbeSet 11751329_s_at) / Fold change (ACY-1035/veh), FGFR1OP (ProbeSet 11751329_s_at) / Fold change (Aza/veh), VPS36 (ProbeSet 11739960_a_at) / Fold change (ACY-1035/veh), VPS36 (ProbeSet 11739960_a_at) / RFU SYPL1 (11715823_x_at) / Fold change /veh SYPL1 (11715823_x_at) / RFU IGFBP7 (11715501_s_at) / Fold change /veh IGFBP7 (11715501_s_at) / RFU REEP3 (11722064_at) / Fold change /veh REEP3 (11722064_at) / RFU IGLL1 (11728026_x_at) / Fold change /veh IGLL1 (11728026_x_at): dose or concentration left out as unconfirmed
Conditions: ProbeSet 11734937_a_at; LIST B

In the case of `Nc1ccc(-c2cccs2)cc1NC(=O)c1ccc2c(c1)cc(C1CC1)n2CCN1CCOCC1` [ACY-1035], the “RFU, CNOT2” value is reported as 798.97 RFU.
